Source: ChEMBL document CHEMBL1130603, “Studies on the C-terminal of hexapeptide inhibitors of the hepatitis C virus serine protease” (Bioorg Med Chem Lett, 1998)
Square brackets hold non-standard residues; d marks the D form. Peptide text beside a SMILES is read from it. * marks the point of attachment. Nle = CCCC[C@H](N)C(=O)O; Nva = CCC[C@H](N)C(=O)O; Abu = CC[C@H](N)C(=O)O; CF3 = FC(F)(F)*

Legend:
[1] = biological target: Hepatitis C virus serine protease, NS3/NS4A (Hepatitis C virus, UniProt A3EZI9+D2K2A8); assay: (§1) Inhibition of hepatitis C virus (HCV) NS3 protease.; type: protein-complex assay, Hepacivirus hominis
[2] = Compound was tested for inhibition of bovine pancreatic alpha-chymotrypsin; parameters: species or system Bos taurus
[3] = biological target: T1, Neutrophil elastase (Homo sapiens, UniProt P08246); assay: Compound was tested for inhibition of human leucocyte elastase (HLE)
T1 sequence (P08246 whole entry): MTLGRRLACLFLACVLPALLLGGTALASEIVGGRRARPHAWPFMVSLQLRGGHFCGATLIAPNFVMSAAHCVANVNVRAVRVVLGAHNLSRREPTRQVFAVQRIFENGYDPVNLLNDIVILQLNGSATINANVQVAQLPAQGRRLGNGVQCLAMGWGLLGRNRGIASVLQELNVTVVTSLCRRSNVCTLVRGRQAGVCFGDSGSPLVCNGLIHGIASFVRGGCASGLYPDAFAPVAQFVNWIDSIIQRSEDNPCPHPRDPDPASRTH

[4] = biological target: Pancreatic elastase (Sus scrofa, UniProt P08419+P00772); assay: Compound was tested for inhibition of porcine pancreatic elastase (PPE); type: protein assay
[5] = biological target: Cathepsin B (Homo sapiens, UniProt P07858); assay: Compound was tested for inhibition of human liver Cathepsin B
[6] = biological target: T2, Hepatitis C virus serine protease, NS3/NS4A (Hepatitis C virus, UniProt D2K2A8+A3EZI9); assay: as §1; type: protein-complex assay, Hepacivirus hominis
[7] = biological target: T2, Hepatitis C virus serine protease, NS3/NS4A; assay: Compound was tested for competitive inhibition of hepatitis C virus (HCV) serine protease; type: protein-complex assay, Hepacivirus hominis

IC50 [1]	IC50 [2]	IC50 [3]	IC50 [4]	IC50 [5]	Molecule	also measured
500 µM					CCCC[C@H](NC(=O)[C@@H]1CCCN1C(=O)[C@@H](NC(=O)[C@@H](NC(=O)[C@H](CC(=O)O)NC(=O)[C@H](CC(=O)O)NC(C)=O)[C@@H](C)CC)C(C)C)C(=O)O (Ac-DDIVP[Nle]-OH)	
1.1 µM	> 900 µM	6.7 µM	2.2 µM	9.5 µM	CCC[C@@H](C=O)NC(=O)[C@@H]1CCCN1C(=O)[C@@H](NC(=O)[C@@H](NC(=O)[C@@H](CC(=O)O)NC(=O)[C@H](CC(=O)O)NC(C)=O)[C@@H](C)CC)C(C)C	
160 µM					CCC[C@H](NC(=O)[C@@H]1CCCN1C(=O)[C@@H](NC(=O)[C@@H](NC(=O)[C@H](CC(=O)O)NC(=O)[C@H](CC(=O)O)NC(C)=O)[C@@H](C)CC)C(C)C)C(=O)C(F)(F)F (Ac-DDIVP[Nva]-CF3)	
800 µM					Ac-DDIVPL-OH	
					CCC[C@@H](NC(=O)[C@@H]1CCCN1C(=O)[C@@H](NC(=O)[C@@H](NC(=O)[C@@H](CC(=O)O)NC(=O)[C@H](CC(=O)O)NC(C)=O)[C@@H](C)CC)C(C)C)C(=O)OC	IC50 [6]: 17 µM
190 µM					CC[C@@H](C)[C@H](NC(=O)[C@@H]1CCCN1C(=O)[C@@H](NC(=O)[C@@H](NC(=O)[C@H](CC(=O)O)NC(=O)[C@H](CC(=O)O)NC(C)=O)[C@@H](C)CC)C(C)C)C(=O)O	
17 µM	> 1000 µM	> 1000 µM	> 1000 µM	> 1000 µM	CCC[C@H](NC(=O)[C@@H]1CCCN1C(=O)[C@@H](NC(=O)[C@@H](NC(=O)[C@@H](CC(=O)O)NC(=O)[C@H](CC(=O)O)NC(C)=O)[C@@H](C)CC)C(C)C)C(=O)O (Ac-D[dD]IVP[Nva]-OH)	
250 µM					CC[C@H](NC(=O)[C@@H]1CCCN1C(=O)[C@@H](NC(=O)[C@@H](NC(=O)[C@H](CC(=O)O)NC(=O)[C@H](CC(=O)O)NC(C)=O)[C@@H](C)CC)C(C)C)C(=O)O (Ac-DDIVP[Abu]-OH)	
					CC[C@H](C)[C@H](NC(=O)[C@@H](CC(=O)O)NC(=O)[C@H](CC(=O)O)NC(C)=O)C(=O)N[C@H](C(=O)N1CCC[C@@H]1C(=O)N[C@@H](CS)C(=O)O)C(C)C	Ki [7]: 0.6 µM
28 µM					CC[C@H](C)[C@H](NC(=O)[C@H](CC(=O)O)NC(=O)[C@H](CC(=O)O)NC(C)=O)C(=O)N[C@H](C(=O)N1CCC[C@H]1C(=O)N[C@@H](CS)C(=O)O)C(C)C	
					CCC[C@@H](NC(=O)[C@@H]1CCCN1C(=O)[C@@H](NC(=O)[C@@H](NC(=O)[C@@H](CC(=O)O)NC(=O)[C@H](CC(=O)O)NC(C)=O)[C@@H](C)CC)C(C)C)C(N)=O	IC50 [6]: > 1000 µM
					CCC[C@@H](NC(=O)[C@@H]1CCCN1C(=O)[C@@H](NC(=O)[C@@H](NC(=O)[C@@H](CC(=O)O)NC(=O)[C@H](CC(=O)O)NC(C)=O)[C@@H](C)CC)C(C)C)C(=O)NC	IC50 [6]: 160 µM
0.64 µM	30 µM	0.1 µM	< 0.06 µM	172 µM	CCC[C@H](NC(=O)[C@@H]1CCCN1C(=O)[C@@H](NC(=O)[C@@H](NC(=O)[C@@H](CC(=O)O)NC(=O)[C@H](CC(=O)O)NC(C)=O)[C@@H](C)CC)C(C)C)C(=O)C(=O)NCc1ccccc1	
750 µM					Ac-DDIVPA-OH	
79 µM					CCC[C@H](NC(=O)[C@@H]1CCCN1C(=O)[C@@H](NC(=O)[C@@H](NC(=O)[C@H](CC(=O)O)NC(=O)[C@H](CC(=O)O)NC(C)=O)[C@@H](C)CC)C(C)C)C(=O)C(F)(F)C(F)(F)F	
150 µM					CCC[C@H](NC(=O)[C@@H]1CCCN1C(=O)[C@@H](NC(=O)[C@@H](NC(=O)[C@H](CC(=O)O)NC(=O)[C@H](CC(=O)O)NC(C)=O)[C@@H](C)CC)C(C)C)C(=O)O (Ac-DDIVP[Nva]-OH)	
10 µM					CCC[C@@H](C=O)NC(=O)[C@@H]1CCCN1C(=O)[C@@H](NC(=O)[C@@H](NC(=O)[C@H](CC(=O)O)NC(=O)[C@H](CC(=O)O)NC(C)=O)[C@@H](C)CC)C(C)C	
12 µM	18 µM	0.06 µM	< 0.06 µM	416 µM	CCC[C@H](NC(=O)[C@@H]1CCCN1C(=O)[C@@H](NC(=O)[C@@H](NC(=O)[C@@H](CC(=O)O)NC(=O)[C@H](CC(=O)O)NC(C)=O)[C@@H](C)CC)C(C)C)C(=O)C(F)(F)C(F)(F)F	
280 µM					CCC[C@H](CO)NC(=O)[C@@H]1CCCN1C(=O)[C@@H](NC(=O)[C@@H](NC(=O)[C@@H](CC(=O)O)NC(=O)[C@H](CC(=O)O)NC(C)=O)[C@@H](C)CC)C(C)C	
2 µM	10 µM	0.03 µM	< 0.06 µM	100 µM	CCC[C@H](NC(=O)[C@@H]1CCCN1C(=O)[C@@H](NC(=O)[C@@H](NC(=O)[C@H](CC(=O)O)NC(=O)[C@H](CC(=O)O)NC(C)=O)[C@@H](C)CC)C(C)C)C(=O)C(=O)NCc1ccccc1	
	> 1000 µM	120 µM	206 µM	> 1000 µM	CCC[C@@H](NC(=O)[C@@H]1CCCN1C(=O)[C@@H](NC(=O)[C@@H](NC(=O)[C@@H](CC(=O)O)NC(=O)[C@H](CC(=O)O)NC(C)=O)[C@@H](C)CC)C(C)C)C(=O)NCc1ccccc1	IC50 [6]: 52 µM
	29 µM	> 1000 µM	> 1000 µM	> 1000 µM	CCC[C@@H](NC(=O)[C@@H]1CCCN1C(=O)[C@@H](NC(=O)[C@@H](NC(=O)[C@@H](CC(=O)O)NC(=O)[C@H](CC(=O)O)NC(C)=O)[C@@H](C)CC)C(C)C)C(=O)OCc1ccccc1	IC50 [6]: 9.3 µM
22 µM	4.5 µM	< 0.06 µM	0.19 µM	> 900 µM	CCC[C@H](NC(=O)[C@@H]1CCCN1C(=O)[C@@H](NC(=O)[C@@H](NC(=O)[C@@H](CC(=O)O)NC(=O)[C@H](CC(=O)O)NC(C)=O)[C@@H](C)CC)C(C)C)C(=O)C(F)(F)F (Ac-D[dD]IVP[Nva]-CF3)	
780 µM					CC[C@H](C)[C@H](NC(=O)[C@@H]1CCCN1C(=O)[C@@H](NC(=O)[C@@H](NC(=O)[C@H](CC(=O)O)NC(=O)[C@H](CC(=O)O)NC(C)=O)[C@@H](C)CC)C(C)C)C(=O)O	
